Measurements taken from patent publication US9309248B2, “Azaindolines” (Hoffmann-La Roche Inc., priority 2012, dated 2016).

Legend:
BIR3 domain of XIAP = target: T1, BIR3 domain of XIAP (Homo sapiens, UniProt P98170); test: TR-FRET assay for BIR3 (inhibition of binding of XIAP BIR3 domain to SMAC-derived Peptide A); details: 6x Histidine-tagged BIR3 domain (amino acids 241-356 of XIAP) 10 nM, Peptide A 20 nM
T1 construct: BIR3 domain, corresponding to amino acids 241-356 of XIAP
Procedure: (§1) TR-FRET Assay for BIR2 and BIR3
(§2) The ability of a test compound to inhibit the binding of BIR2 and/or BIR3 domains of the XIAP protein to Peptide A (a SMAC-derived peptide described below) evidences that the test compound acts as a SMAC-mimetic resulting in reactivation of a cell's apoptotic pathway.
(§3) The peptides were labeled with the fluorescent tags FITC or TAMRA and Kd values were determined by fluorescence polarization assay. […] The peptide sequence was derivatized with biotin to provide […]-(ε-biotin)-OH 1:2 TFA as the substrate for the TR-FRET assay.
The sequence of the BIR3 domain used for the TR-FRET assay is […]
Ten nanomolar of 6× Histidine-tagged BIR2 domain, corresponding to amino acids 124-240 of XIAP, or BIR3 domain, corresponding to amino acids 241-356 of XIAP, was mixed with 20 nM of the peptide […]-(z-biotin)-OH 1:2 TFA, in the presence of 50 mM Tris-Cl, pH 7.5, 100 mM NaCl, 1 mM dithiothreitol (DTT) and 0.1 mg/mL bovine serum albumin (BSA). Following a […] incubation at 37° C., Europium-Streptavidin and Allophycocyanin conjugated anti-Histidine antibody were added to a final concentration of 1.5 nM and 15 nM, respectively. Time-resolved fluorescence resonance energy transfer (TR-FRET) signals were measured 1 hour later at room temperature. Test compound potency was assessed at 10 serially diluted concentrations. Percentage of inhibition at each concentration was determined to generate an IC50 value for each test compound.

BIR2 domain of XIAP = target: T2, BIR2 domain of XIAP (Homo sapiens, UniProt P98170, C202A/C213G); test: TR-FRET assay for BIR2 (inhibition of binding of XIAP BIR2 domain to SMAC-derived Peptide A); details: 6x Histidine-tagged BIR2 domain (amino acids 124-240 of XIAP) 10 nM, Peptide A 20 nM
T2 construct: 6× Histidine-tagged BIR2 domain, corresponding to amino acids 124-240 of XIAP
Procedure: as §1, §2, §3
The XIAP protein sequence was obtained from the SWISS-PROT protein sequence database and the BIR2 and BIR3 domains were derived from that. The sequence of the BIR2 domain used for the TR-FRET assay is […].
Time-resolved fluorescence resonance energy transfer (TR-FRET) signals were measured 1 hour later at room temperature. Test compound potency was assessed at 10 serially diluted concentrations. Percentage of inhibition at each concentration was determined to generate an IC50 value for each test compound.

T2 sequence (P98170 with tags, fused parts or gaps C202A/C213G): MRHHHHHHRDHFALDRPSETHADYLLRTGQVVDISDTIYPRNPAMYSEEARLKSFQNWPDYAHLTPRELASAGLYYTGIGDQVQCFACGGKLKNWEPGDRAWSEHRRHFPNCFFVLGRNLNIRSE
T1 sequence (P98170 with tags, fused parts or gaps): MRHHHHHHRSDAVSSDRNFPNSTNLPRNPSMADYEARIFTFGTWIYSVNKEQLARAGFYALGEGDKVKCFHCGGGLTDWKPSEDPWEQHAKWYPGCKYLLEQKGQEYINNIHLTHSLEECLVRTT

IC50 (BIR3 domain of XIAP) | IC50 (BIR2 domain of XIAP) | SMILES
> 54800 nM | 427 nM | CN[C@@H](C)C(=O)N[C@H](C(=O)N1c2ncccc2C[C@H]1C(=O)Nc1cc(F)cc(F)c1)C(C)C [Example 23, (S)-1-[(S)-3-Methyl-2-((S)-2-methylamino-propionylamino)-butyryl]-2,3-dihydro-1H-pyrrolo[2,3-b]pyridine-2-carboxylic acid (3,5-difluoro-phenyl)-amide]
9210 nM | 774 nM | CN[C@@H](C)C(=O)N[C@H](C(=O)N1c2ncccc2C[C@H]1C(=O)NCc1ccc(F)cc1)C(C)C [Example 24, (S)-1-[(S)-3-Methyl-2-((S)-2-methylamino-propionylamino)-butyryl]-2,3-dihydro-1H-pyrrolo[2,3-b]pyridine-2-carboxylic acid 4-fluoro-benzylamide]
> 54800 nM | 25.4 nM | CN[C@@H](C)C(=O)N[C@H](C(=O)N1c2ncccc2C[C@H]1C(=O)Nc1ccccc1Cl)C(C)C [Example 25, (S)-1-[(S)-3-Methyl-2-((S)-2-methylamino-propionylamino)-butyryl]-2,3-dihydro-1H-pyrrolo[2,3-b]pyridine-2-carboxylic acid (2-chloro-phenyl)-amide]
52300 nM | 61 nM | CN[C@@H](C)C(=O)N[C@H](C(=O)N1c2ncccc2C[C@H]1C(=O)Nc1ccccc1C(=O)c1ccccc1)C(C)C [Example 26, (S)-1-[(S)-3-Methyl-2-((S)-2-methylamino-propionylamino)-butyryl]-2,3-dihydro-1H-pyrrolo[2,3-b]pyridine-2-carboxylic acid (2-benzoyl-phenyl)-amide]
> 54800 nM | 2110 nM | CN[C@@H](C)C(=O)N[C@H](C(=O)N1c2ncccc2C[C@@H]1C(=O)Nc1ccccc1C(=O)c1ccccc1)C(C)C [Example 27, (R)-1-[(S)-3-Methyl-2-((S)-2-methylamino-propionylamino)-butyryl]-2,3-dihydro-1H-pyrrolo[2,3-b]pyridine-2-carboxylic acid (2-benzoyl-phenyl)-amide]
> 54800 nM | 14.4 nM | CN[C@@H](C)C(=O)N[C@H](C(=O)N1c2ncccc2C[C@H]1C(=O)Nc1c(F)cccc1F)C(C)C [Example 28, (S)-1-[(S)-3-Methyl-2-((S)-2-methylamino-propionylamino)-butyryl]-2,3-dihydro-1H-pyrrolo[2,3-b]pyridine-2-carboxylic acid (2,6-difluoro-phenyl)-amide]
> 54800 nM | 421 nM | CN[C@@H](C)C(=O)N[C@H](C(=O)N1c2ncccc2C[C@@H]1C(=O)Nc1c(F)cccc1F)C(C)C [Example 29, (R)-1-[(S)-3-Methyl-2-((S)-2-methylamino-propionylamino)-butyryl]-2,3-dihydro-1H-pyrrolo[2,3-b]pyridine-2-carboxylic acid (2,6-difluoro-phenyl)-amide]
46800 nM | 158 nM | CN[C@@H](C)C(=O)N[C@H](C(=O)N1c2ncccc2C[C@H]1C(=O)Nc1ccccc1Oc1ccccc1)C(C)C [Example 30, (S)-1-[(S)-3-Methyl-2-((S)-2-methylamino-propionylamino)-butyryl]-2,3-dihydro-1H-pyrrolo[2,3-b]pyridine-2-carboxylic acid (2-phenoxy-phenyl)-amide]
> 54800 nM | 11700 nM | CN[C@@H](C)C(=O)N[C@H](C(=O)N1c2ncccc2C[C@@H]1C(=O)Nc1ccccc1Oc1ccccc1)C(C)C [Example 31, (R)-1-[(S)-3-Methyl-2-((S)-2-methylamino-propionylamino)-butyryl]-2,3-dihydro-1H-pyrrolo[2,3-b]pyridine-2-carboxylic acid (2-phenoxy-phenyl)-amide]
> 54800 nM | 9.59 nM | CN[C@@H](C)C(=O)N[C@H](C(=O)N1c2ncccc2C[C@H]1C(=O)Nc1c(C)cccc1F)C(C)C [Example 32, (S)-1-[(S)-3-Methyl-2-((S)-2-methylamino-propionylamino)-butyryl]-2,3-dihydro-1H-pyrrolo[2,3-b]pyridine-2-carboxylic acid (2-fluoro-6-methyl-phenyl)-amide]
> 54800 nM | 44.9 nM | CN[C@@H](C)C(=O)N[C@H](C(=O)N1c2ncccc2C[C@H]1C(=O)Nc1c(C)cccc1C)C(C)C [Example 33, (S)-1-[(S)-3-Methyl-2-((S)-2-methylamino-propionylamino)-butyryl]-2,3-dihydro-1H-pyrrolo[2,3-b]pyridine-2-carboxylic acid (2,6-dimethyl-phenyl)-amide]
> 54800 nM | 137 nM | CN[C@@H](C)C(=O)N[C@H](C(=O)N1c2ncccc2C[C@H]1c1nc2ccccc2[nH]1)C(C)C [Example 34, (S)—N—{(S)-1-[(S)-2-(1H-Benzoimidazol-2-yl)-2,3-dihydro-pyrrolo[2,3-b]pyridine-1-carbonyl]-2-methyl-propyl}-2-methylamino-propionamide]
> 54800 nM | 37700 nM | CN[C@@H](C)C(=O)N[C@H](C(=O)N1c2ncccc2C[C@@H]1c1nc2ccccc2[nH]1)C(C)C [Example 35, (S)—N—{(S)-1-[(R)-2-(1H-Benzoimidazol-2-yl)-2,3-dihydro-pyrrolo[2,3-b]pyridine-1-carbonyl]-2-methyl-propyl}-2-methylamino-propionamide]
> 54800 nM | 12.7 nM | CN[C@@H](C)C(=O)N[C@H](C(=O)N1c2ncccc2C[C@H]1C(=O)Nc1ccccc1F)C(C)C [Example 36, (S)-1-[(S)-3-Methyl-2-((S)-2-methylamino-propionylamino)-butyryl]-2,3-dihydro-1H-pyrrolo[2,3-b]pyridine-2-carboxylic acid (2-fluoro-phenyl)-amide]
> 54800 nM | 323 nM | CN[C@@H](C)C(=O)N[C@H](C(=O)N1c2ncccc2C[C@H]1C(=O)NCC(F)(F)F)C(C)C [Example 37, (S)-1-[(S)-3-Methyl-2-((S)-2-methylamino-propionylamino)-butyryl]-2,3-dihydro-1H-pyrrolo[2,3-b]pyridine-2-carboxylic acid (2,2,2-trifluoro-ethyl)-amide]
> 54800 nM | 237 nM | CN[C@@H](C)C(=O)N[C@H](C(=O)N1c2ncccc2C[C@H]1C(=O)Nc1cnccc1C)C(C)C [Example 38, (S)-1-[(S)-3-Methyl-2-((S)-2-methylamino-propionylamino)-butyryl]-2,3-dihydro-1H-pyrrolo[2,3-b]pyridine-2-carboxylic acid (4-methyl-pyridin-3-yl)-amide]
> 54800 nM | 226 nM | CN[C@@H](C)C(=O)N[C@H](C(=O)N1c2ncccc2C[C@H]1C(=O)Nc1cccc(F)c1)C(C)C [Example 39, (S)-1-[(S)-3-Methyl-2-((S)-2-methylamino-propionylamino)-butyryl]-2,3-dihydro-1H-pyrrolo[2,3-b]pyridine-2-carboxylic acid (3-fluoro-phenyl)-amide]
> 54800 nM | 104 nM | CCc1ccccc1NC(=O)[C@@H]1Cc2cccnc2N1C(=O)[C@@H](NC(=O)[C@H](C)NC)C(C)C [Example 40, (S)-1-[(S)-3-Methyl-2-((S)-2-methylamino-propionylamino)-butyryl]-2,3-dihydro-1H-pyrrolo[2,3-b]pyridine-2-carboxylic acid (2-ethyl-phenyl)-amide]
> 54800 nM | 701 nM | CN[C@@H](C)C(=O)N[C@H](C(=O)N1c2ncccc2C[C@H]1C(=O)Nc1ccc(C2CCNCC2)cc1)C(C)C [Example 41, (S)-1-[(S)-3-Methyl-2-((S)-2-methylamino-propionylamino)-butyryl]-2,3-dihydro-1H-pyrrolo[2,3-b]pyridine-2-carboxylic acid (4-piperidin-4-yl-phenyl)-amide]
> 54800 nM | 847 nM | CN[C@@H](C)C(=O)N[C@H](C(=O)N1c2ncccc2C[C@H]1C(=O)Nc1ccc(C(=O)c2ccccc2)cc1)C(C)C [Example 42, (S)-1-[(S)-3-Methyl-2-((S)-2-methylamino-propionylamino)-butyryl]-2,3-dihydro-1H-pyrrolo[2,3-b]pyridine-2-carboxylic acid (4-benzoyl-phenyl)-amide]
> 54800 nM | 71.1 nM | CN[C@@H](C)C(=O)N[C@H](C(=O)N1c2ncccc2C[C@H]1C(=O)Nc1cccc(C)c1C)C(C)C [Example 43, (S)-1-[(S)-3-Methyl-2-((S)-2-methylamino-propionylamino)-butyryl]-2,3-dihydro-1H-pyrrolo[2,3-b]pyridine-2-carboxylic acid (2,3-dimethyl-phenyl)-amide]
